For orientation: IC50 means the concentration that gives 50% inhibition. The term inhibition denotes the percentage by which the read-out fell short of the control.

Consider seven compounds from patent EP0777471B1, “INHIBITION OF LEUKOTRIENE BIOSYNTHESIS WITH UREA DERIVATIVES” (MINNESOTA MINING AND MANUFACTURING COMPANY, priority 1994, dated 1996).

One assay concerns the target T1, 5-lipoxygenase (Homo sapiens, UniProt P09917).
T1 construct: Whole human blood is collected by venipuncture into EDTA; endogenous in cells; host or cells: leukocytes isolated from whole human blood (dextran sedimentation, hypotonic lysis)
T1 sequence (P09917 1-674): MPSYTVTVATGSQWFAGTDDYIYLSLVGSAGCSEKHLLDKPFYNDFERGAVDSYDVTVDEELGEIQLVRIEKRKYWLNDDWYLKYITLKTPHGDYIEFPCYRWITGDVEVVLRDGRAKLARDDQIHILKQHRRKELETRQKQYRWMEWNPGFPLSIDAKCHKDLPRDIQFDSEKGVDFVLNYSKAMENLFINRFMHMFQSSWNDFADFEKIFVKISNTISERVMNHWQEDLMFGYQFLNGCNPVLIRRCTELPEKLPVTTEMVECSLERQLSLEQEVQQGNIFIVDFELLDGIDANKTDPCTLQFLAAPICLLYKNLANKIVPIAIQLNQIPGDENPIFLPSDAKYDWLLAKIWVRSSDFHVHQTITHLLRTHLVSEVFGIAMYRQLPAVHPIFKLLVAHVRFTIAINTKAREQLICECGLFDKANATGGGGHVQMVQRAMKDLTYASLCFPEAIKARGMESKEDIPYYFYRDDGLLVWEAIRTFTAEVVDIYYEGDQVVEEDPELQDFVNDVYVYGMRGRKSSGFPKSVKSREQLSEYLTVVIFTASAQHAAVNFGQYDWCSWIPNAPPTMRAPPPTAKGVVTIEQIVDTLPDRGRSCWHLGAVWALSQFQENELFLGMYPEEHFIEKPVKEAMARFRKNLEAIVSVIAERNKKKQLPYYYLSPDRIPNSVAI
Kind of assay: 5-Lipoxygenase inhibition in human leukocytes (A23187-stimulated, LTC4 radioimmunoassay). Particulars: human leukocytes, A23187 Calcium Ionophore, LTC4 formed; read-out: IC50. The class given is cell-based. As to the method: The test method described below measures the ability of compounds to inhibit 5-lipoxygenase activity in human leukocytes.
Whole human blood is collected by venipuncture into EDTA (1.4 mL of 0.25M per 60 mL of whole blood). The red blood cells are sedimented with a 6% dextran/0.9% sodium chloride solution at a ratio of 25 mL whole blood to 15 mL dextran solution. The blood/dextran combination is mixed by inversion and the red blood cells are allowed to settle out for 45 minutes at ambient temperature. The plasma/dextran supernatant is removed then centrifuged at ambient temperature at 3000 rpm for 10 minutes. The plasma/dextran supernatant is removed and the cells are resuspended in 10 mL of the plasma/dextran solution. […] The pellet is then resuspended into Tris buffer containing 1 mM calcium chloride to provide approximately 1.0 X 10^7 cells/mL.
Compounds are dissolved in dimethyl sulfoxide. […] Each concentration is tested in duplicate.
A 15 µL portion of Tris buffer containing 1 mM calcium chloride is added to each well of a 96 well microtiter plate. A 1 µL portion of drug solution or vehicle (dimethyl sulfoxide) is added to each well followed by the addition of an 75 µL portion of the cell suspension. The plates are gently mixed then allowed to stand at ambient temperature for 10 minutes. A 10 µL portion of 30 µM A23187 Calcium Ionophore (prepared by dissolving the ionophore in DMSO and then diluting 1:80 into the Tris buffer) is added to each well except the wells that contain the blanks (The blank wells measure the level of LTC4 production in the absence of A23187.). The plates are gently mixed then incubated at 37°C for 10 minutes.
Following incubation the plates are centrifuged at 2000 rpm for 1.5 minutes and the supernatant is removed as quickly as possible to stop the reaction. The supernatants are frozen at -20°C until they are assayed.
The supernatants are assayed for the presence of Leukotriene C4 by radioimmunoassay which is performed according to the manufacturer's (Advanced Magnetics; Cambridge, MA) instructions.

For assay [1], the system named is production of Leukotriene C4 in mouse peritoneal macrophages. In words: In vitro mouse peritoneal macrophage Leukotriene C4 inhibition (zymosan-stimulated, LTC4 radioimmunoassay). The conditions noted are these: Zymosan 50 µg/mL. The assay is classed as cell-based. A digest of the protocol:
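Adherent peritoneal macrophages from female CD-1 mice were preincubated 15 minutes at 37°C with compound (10, 1 and 0.1 µM, duplicate; DMSO). They were then stimulated with 50 µg/mL zymosan for 1 to 2 hours. Leukotriene C4 released into the medium was measured by radioimmunoassay.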

Assay [2] deals with production of Leukotriene B4 (LTB4). In words: Dog ex vivo Leukotriene B4 inhibition (oral dosing, blood challenged with calcium ionophore). The assay is classed as in vivo, beagle dogs. The conditions noted are these: each entry one dog, negative = stimulation of LTB4 production; for % Inhibition 4 hour: 4 hour post dose; for % Inhibition 6 hour: 6 hour post dose; for inhibition at 5 mg/kg: Canis lupus familiaris, po. In outline: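 Beagle dogs (~10 kg) given compound orally by gavage in PEG 400 at 5 mg/kg; jugular blood drawn pre-dose and at selected post-dose times. Blood challenged with calcium ionophore 30 min at 37°C, plasma LTB4 measured by radioimmunoassay; % inhibition from post-dose versus pre-dose LTB4, one dog per value.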

For assay [3], the system named is production of Leukotriene B4. In words: Rat ex vivo Leukotriene B4 inhibition (oral dosing, blood challenged with A23187). The class given is in vivo, Rats. Particulars: two hours post dose. A digest of the protocol: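 Male CD rats (250 g, non-fasted) dosed orally with compound in PEG 400, 5 rats/group; blood drawn by cardiac puncture before and 2 h after dosing. Heparinized blood challenged with A23187 calcium ionophore, 30 min at 37°C; plasma LTB4 measured by radioimmunoassay. % inhibition = post-dose vs pre-dose LTB4 level.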

The mark [4] stands for this setting: 1 h, 1 hour post dose, read-out: % Inhibition 1 hour.

Molecules are shown by their SMILES. Values joined by “and” are separate entries in the source; they are usually repeats but may differ in a detail not shown here. Identical values can stand only once. Like-named read-outs stand apart in the source and are kept apart here. A value given as a limit tells only on which side of the number the result lay.

For `CSc1cccc(NC(=O)N(O)CC(C)C)c1` [Compound 58, 1-Hydroxy-1-(2-methylpropyl)-3-[3-(methylthio)phenyl]urea], the half-inhibitory concentration (IC50) at 5-lipoxygenase was 0.002 µM. Also, half-maximal inhibition in assay [1] (IC50) was put at 0.1 µM. For the same compound, the “% Inhibition 1 hour” value in assay [2] (5 mg/Kg, 1 hour post dose) was 1% and -24%. In addition, the “% Inhibition 2 hour” value in assay [2] (5 mg/Kg, 2 hour post dose) is -21% and -35%. Also, in assay [2] (5 mg/Kg), the “% Inhibition 4 hour” value was -43% and -63%; the “% Inhibition 6 hour” value is 8% and -34%.
Take `CSc1ccc(NC(=O)N(O)C2CCCCC2)cc1` [Compound 31, 1-Cyclohexyl-1-hydroxy-3-[4-(methylthio)phenyl]urea]: the IC50 on 5-lipoxygenase amounted to 0.006 µM; in assay [1], 0.2 µM. In addition, in assay [3] (25 mg/Kg), the “%I” value was determined as 40%.
Take `COc1cccc(NC(=O)N(O)C(C)C)c1` [Compound 22, 1-hydroxy-3-(3-methoxyphenyl)-1-(1-methylethyl)urea]: the IC50 on 5-lipoxygenase worked out at 0.74 µM; in assay [1], 0.3 µM. Moreover, the “% Inhibition 2 hour” value in assay [2] (5 mg/Kg, 2 hour post dose) is 78% and -140%. Besides, the inhibition at 5 mg/kg in assay [2] (setting [4]) was found to be 100%.
For the compound `CSc1cccc(NC(=O)NO)c1` [Compound 34, 1-hydroxy-3-[3-(methylthio)phenyl]urea], the IC50 at 5-lipoxygenase was 0.46 µM; in assay [1] it was greater than 10 µM. Further, the “%I” value in assay [3] (25 mg/Kg) is given as -2.9%.
`CN(O)C(=O)Nc1ccc(F)cc1` [Compound 11, 3-(4-fluorophenyl)-1-hydroxy-1-methylurea]: the IC50 at 5-lipoxygenase amounted to 0.049 µM. Also, the “%I” value was 26% in assay [3] (20 mg/Kg) and 20% in assay [3] (50 mg/Kg). Moreover, in assay [2] (5 mg/Kg), the “% Inhibition 4 hour” value was 77% and 41%. In assay [2] (5 mg/Kg), the “% Inhibition 6 hour” value is -17% and 30%. The inhibition at 5 mg/kg stood at 100% in assay [2] (setting [4]) and 100% in assay [2] (2 h, 2 hour post dose, read-out: % Inhibition 2 hour).
On to `CCN(O)C(=O)Nc1ccccc1` [Compound 43, 1-ethyl-1-hydroxy-3-phenylurea], for which the IC50 at 5-lipoxygenase is 0.03 µM; in assay [1], 0.9 µM. In addition, the “%I” value in assay [3] (20 mg/Kg) stood at 12%; in assay [3] (50 mg/Kg) it was 16%.
For the compound `Cc1cccc(C)c1NC(=O)N(O)C(C)C` [Compound 26, 3-(2,6-dimethylphenyl)-1-hydroxy-1-(1-methylethyl)urea], the concentration for half-maximal inhibition (IC50) was greater than 10 µM at 5-lipoxygenase and greater than 1 µM in assay [1].
